Data: ChEMBL document CHEMBL1126172, “Modeling of competitive phosphono amino acid NMDA receptor antagonists” (J Med Chem, 1992)

How the values were obtained:
Format in all cases: protein-complex assay
Glutamate NMDA receptor [1] = test: Displacement of [3H]CPP or [3H]-CGS- 19755 from rat N-methyl-D-aspartate glutamate receptor
Glutamate NMDA receptor [2] = test: Compound was evaluated for its ability to displace [3H]-CGS- 19755 ligand from N-methyl-D-aspartate glutamate receptor
Glutamate NMDA receptor [3] = test: Compound was evaluated for its ability to displace [3H]CPP or [3H]-CGS- 19755 ligand from N-methyl-D-aspartate glutamate receptor
Glutamate NMDA receptor [4] = test: Compound was evaluated for its ability to displace [3H]CPP ligand from N-methyl-D-aspartate (NMDA) receptor
Glutamate NMDA receptor [5] = test: Compound was evaluated for its ability to displace [3H]CPP ligand from N-methyl-D-aspartate glutamate receptor
Glutamate NMDA receptor [6] = test: (§1) Compound was evaluated for its ability to displace [3H]CPP or [3H]-CGS- 19755 ligand from N-methyl-D-aspartate (NMDA) receptor
Glutamate NMDA receptor [7] = test: as §1; remark: listed apart in the source
Glutamate NMDA receptor [8] = test: Compound was evaluated for its ability to displace [3H]-CPP ligand from N-methyl-D-aspartate (NMDA) receptor

Compound | Ki (Glutamate NMDA receptor [1]) [nM] | further results
O=C(O)[C@H]1NCCC[C@H]1CCP(=O)(O)O | > 1000 | –
CC(C)([C@@H]1CCN[C@H](C(=O)O)C1)P(=O)(O)O | > 1000 | –
NC(CCCCP(=O)(O)O)C(=O)O (configuration not stated) | – | Ki (Glutamate NMDA receptor [3]): > 1000 nM; Ki (Glutamate NMDA receptor [4]): 42 nM
NC(CCCP(=O)(O)O)C(=O)O (configuration not stated) | < 1000 | Ki (Glutamate NMDA receptor [5]): 260 nM
C[C@H]1C[C@@H](CP(=O)(O)O)C[C@@H](C(=O)O)N1 | > 1000 | –
O=C(O)[C@@H]1C[C@H](CP(=O)(O)O)CCN1 [SELFOTEL] | – | Ki (Glutamate NMDA receptor [6]): 130 nM; Ki (Glutamate NMDA receptor [7]): < 1000 nM
C[C@@H]1CN[C@H](C(=O)O)C[C@@H]1CP(=O)(O)O | < 1000 | –
NC(CCCCCP(=O)(O)O)C(=O)O (configuration not stated) [AP-7] | < 1000 | Ki (Glutamate NMDA receptor [2]): 912 nM
NC(CCc1ccccc1CP(=O)(O)O)C(=O)O (configuration not stated) | > 1000 | –
C/C(=C\C(N)C(=O)O)CP(=O)(O)O (configuration not stated) [CGP-37849] | – | Ki (Glutamate NMDA receptor [8]): 35 nM; Ki (Glutamate NMDA receptor [7]): < 1000 nM
C[C@@H]1[C@H](CP(=O)(O)O)CCN[C@@H]1C(=O)O | > 1000 | –

Further lines, with some results ahead:

Ki (Glutamate NMDA receptor [1]) [nM] | Compound | further results
< 1000 | O=C(O)[C@@H]1C[C@H](CCCP(=O)(O)O)CCN1 | –
< 1000 | O=C(O)[C@@H]1C[C@H](C/C=C/P(=O)(O)O)CCN1 | Ki (Glutamate NMDA receptor [2]): 72 nM
> 1000 | CC([C@@H]1CCN[C@H](C(=O)O)C1)P(=O)(O)O (some centres not stated) | –
< 1000 | O=C(O)[C@@H]1C[C@H](/C=C/CP(=O)(O)O)CCN1 | Ki (Glutamate NMDA receptor [2]): 14 nM
